# Source: US10822348B2, “Inhibitors of Bruton's tyrosine kinase and methods of their use” (JANSSEN PHARMACEUTICA NV, priority 2015, dated 2020)
# Biological target: unphosphorylated-BTK kinase domain (UP-BTK), GST-tagged human BTK (389-659aa) (Homo sapiens (Human), UniProt Q06187)
# Assay: BTK kinase Lanthascreen binding assay
# Conditions: negative log of the IC50 in molar; 60 minutes incubation with 50 nM Tracer 236
# Protocol: BTK Kinase Lanthascreen Binding Assay:
# A BTK kinase lanthascreen binding assay monitors compound binding to unphosphorylated-BTK kinase domain (UP-BTK), by competing with a fluorescent labeled tracer. […] Data were analyzed using Xlfit™ version 5.3 from ID Business Solutions (Guildford), Microsoft Excel add-in. pIC50 refers to the negative log of the IC50 in molar.
# Chain of unphosphorylated-BTK kinase domain (UP-BTK), GST-tagged human BTK (389-659aa) (Q06187 389-659): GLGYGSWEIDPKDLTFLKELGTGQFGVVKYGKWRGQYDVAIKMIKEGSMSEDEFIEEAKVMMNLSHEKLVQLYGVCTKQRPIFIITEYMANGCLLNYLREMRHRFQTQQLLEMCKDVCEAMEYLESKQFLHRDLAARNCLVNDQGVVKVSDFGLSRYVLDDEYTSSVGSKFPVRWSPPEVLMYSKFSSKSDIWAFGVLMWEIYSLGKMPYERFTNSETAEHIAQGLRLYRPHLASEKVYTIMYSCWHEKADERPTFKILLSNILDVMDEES
row,SMILES,BTK_I_binding pIC50
1,"C=CC(=O)N1CCC[C@@H](NC(=O)c2sc3nccc4c3c2NC(=O)N4c2ccc(OC(F)(F)F)cc2C)C1 (single isomer, unassigned) [Example 624, (R)—N-(1-Acryloylpiperidin-3-yl)-5-(*R)-(2-methyl-4-(trifluoromethoxy)phenyl)-4-oxo-4,5-dihydro-3H-1-thia-3,5,8-triazaacenaphthylene-2-carboxamide]",5.9
2,"C=CC(=O)N1CCC[C@@H](NC(=O)c2sc3nccc4c3c2NC(=O)N4c2ccc(Oc3ccccc3)nc2C)C1 (single isomer, unassigned) [Example 661]",8.3
3,"C=CC(=O)N1CCC[C@@H](NC(=O)c2sc3nccc4c3c2NC(=O)N4c2cnc(CC(C)C)cc2C)C1 (single isomer, unassigned) [Example 669, (R)—N-(1-Acryloylpiperidin-3-yl)-5-(*S)-(6-isobutyl-4-methylpyridin-3-yl)-4-oxo-4,5-dihydro-3H-1-thia-3,5,8-triazaacenaphthylene-2-carboxamide]",8.1
4,"C=CC(=O)N1CCC[C@@H](NC(=O)c2sc3nccc4c3c2NC(=O)N4c2ccc(OC3CCOCC3)cc2C)C1 (single isomer, unassigned) [Example 675, (R)—N-(1-Acryloylpiperidin-3-yl)-5-(*R)-(2-methyl-4-((tetrahydro-2H-pyran-4-yl)oxy)phenyl)-4-oxo-4,5-dihydro-3H-1-thia-3,5,8-triazaacenaphthylene-2-carboxamide]",7.2
5,"C=CC(=O)N1CCC[C@@H](NC(=O)c2sc3nccc4c3c2NC(=O)N4c2ccc(Oc3ccccc3)nc2C)C1 (single isomer, unassigned) [Example 690, (R)—N-(1-Acryloylpiperidin-3-yl)-5-(*R)-(2-methyl-6-phenoxypyridin-3-yl)-4-oxo-4,5-dihydro-3H-1-thia-3,5,8-triazaacenaphthylene-2-carboxamide]",7.6
6,"C=CC(=O)N1CCC[C@@H](NC(=O)c2sc3nccc4c3c2NC(=O)N4c2cnc(Oc3ccccc3)cc2C)C1 (single isomer, unassigned) [Example 691, (R)—N-(1-Acryloylpiperidin-3-yl)-5-(*R)-(4-methyl-6-phenoxypyridin-3-yl)-4-oxo-4,5-dihydro-3H-1-thia-3,5,8-triazaacenaphthylene-2-carboxamide]",6.0
7,"C=CC(=O)N1CCC[C@@H](NC(=O)c2sc3nccc4c3c2NC(=O)N4c2cnc(OC3CCC3)cc2C)C1 (single isomer, unassigned) [Example 700, (R)—N-(1-Acryloylpiperidin-3-yl)-5-(*R)-(6-cyclobutoxy-4-methylpyridin-3-yl)-4-oxo-4,5-dihydro-3H-1-thia-3,5,8-triazaacenaphthylene-2-carboxamide]",8.1
8,"C=CC(=O)N1CC[C@@H](NC(=O)c2sc3nccc4c3c2NC(=O)N4c2ccc(Oc3ccccc3)nc2C)C1 (single isomer, unassigned) [Example 716, (R)—N-(1-Acryloylpyrrolidin-3-yl)-5-(*S)-(2-methyl-6-phenoxypyridin-3-yl)-4-oxo-4,5-dihydro-3H-1-thia-3,5,8-triazaacenaphthylene-2-carboxamide]",8.0
9,"C=CC(=O)N1CCC[C@@H](NC(=O)c2sc3nccc4c3c2NC(=O)N4c2cnc(CC(C)C)cc2C)C1 (single isomer, unassigned) [Example 722, (R)—N-(1-Acryloylpiperidin-3-yl)-5-(*R)-(6-isobutyl-4-methylpyridin-3-yl)-4-oxo-4,5-dihydro-3H-1-thia-3,5,8-triazaacenaphthylene-2-carboxamide]",6.4
10,"C=CC(=O)N1CCC[C@@H](NC(=O)c2sc3nccc4c3c2NC(=O)N4c2ccc(OC3CCOCC3)cc2C)C1 (single isomer, unassigned) [Example 742, (R)—N-(1-Acryloylpiperidin-3-yl)-5-(*S)-(2-methyl-4-((tetrahydro-2H-pyran-4-yl)oxy)phenyl)-4-oxo-4,5-dihydro-3H-1-thia-3,5,8-triazaacenaphthylene-2-carboxamide]",5.8
11,"C=CC(=O)N1CC[C@@H](NC(=O)c2sc3nccc4c3c2NC(=O)N4c2cnc(CC(C)C)cc2C)C1 (single isomer, unassigned) [Example 747, (R)—N-(1-Acryloylpyrrolidin-3-yl)-5-(*S)-(6-isobutyl-4-methylpyridin-3-yl)-4-oxo-4,5-dihydro-3H-1-thia-3,5,8-triazaacenaphthylene-2-carboxamide]",7.5
12,"C=CC(=O)N1CC[C@@H](NC(=O)c2sc3nccc4c3c2NC(=O)N4c2cnc(CC(C)C)cc2C)C1 (single isomer, unassigned) [Example 756, (R)—N-(1-Acryloylpyrrolidin-3-yl)-5-(*R)-(6-isobutyl-4-methylpyridin-3-yl)-4-oxo-4,5-dihydro-3H-1-thia-3,5,8-triazaacenaphthylene-2-carboxamide]",<6
13,"CCC(=O)N1CCC[C@@H](NC(=O)c2sc3nccc4c3c2NC(=O)N4c2cnc(CC(C)C)cc2C)C1 (single isomer, unassigned) [Example 765, (R)-5-(*S)-(6-Isobutyl-4-methylpyridin-3-yl)-4-oxo-N-(1-propionylpiperidin-3-yl)-4,5-dihydro-3H-1-thia-3,5,8-triazaacenaphthylene-2-carboxamide]",6.5
14,"C=CC(=O)N1CCC[C@@H](NC(=O)c2sc3nccc4c3c2NC(=O)N4c2cnc(OCC(C)C)cc2C)C1 (single isomer, unassigned) [Example 766, (R)—N-(1-Acryloylpiperidin-3-yl)-5-(*S)-(6-isobutoxy-4-methylpyridin-3-yl)-4-oxo-4,5-dihydro-3H-1-thia-3,5,8-triazaacenaphthylene-2-carboxamide]",8.2
15,"C=CC(=O)N1CCC[C@@H](NC(=O)c2sc3nccc4c3c2NC(=O)N4c2cnc(OCC(C)C)cc2C)C1 (single isomer, unassigned) [Example 767, (R)—N-(1-Acryloylpiperidin-3-yl)-5-(*R)-(6-isobutoxy-4-methylpyridin-3-yl)-4-oxo-4,5-dihydro-3H-1-thia-3,5,8-triazaacenaphthylene-2-carboxamide]",<6
16,"C=CC(=O)N1CC[C@@H](NC(=O)c2sc3nccc4c3c2NC(=O)N4c2cnc(OC3CCCC3)cc2C)C1 (single isomer, unassigned) [Example 776, (R)—N-(1-Acryloylpyrrolidin-3-yl)-5-(*S)-(6-(cyclopentyloxy)-4-methylpyridin-3-yl)-4-oxo-4,5-dihydro-3H-1-thia-3,5,8-triazaacenaphthylene-2-carboxamide]",8.1
17,"C=CC(=O)N1CC[C@@H](NC(=O)c2sc3nccc4c3c2NC(=O)N4c2cnc(OCC(C)C)cc2C)C1 (single isomer, unassigned) [Example 779, (R)—N-(1-Acryloylpyrrolidin-3-yl)-5-(*S)-(6-isobutoxy-4-methylpyridin-3-yl)-4-oxo-4,5-dihydro-3H-1-thia-3,5,8-triazaacenaphthylene-2-carboxamide]",8.0
18,"C=CC(=O)N1CCC[C@@H](NC(=O)c2sc3nccc4c3c2NC(=O)N4c2ccc(CC(C)C)nc2C)C1 (single isomer, unassigned) [Example 792, (R)—N-(1-Acryloylpiperidin-3-yl)-5-(*S)-(6-isobutyl-2-methylpyridin-3-yl)-4-oxo-4,5-dihydro-3H-1-thia-3,5,8-triazaacenaphthylene-2-carboxamide]",6.4
19,"C=CC(=O)N1CCC[C@@H](NC(=O)c2sc3nccc4c3c2NC(=O)N4c2ccc(CC(C)C)nc2C)C1 (single isomer, unassigned) [Example 815, (R)—N-(1-Acryloylpiperidin-3-yl)-5-(*R)-(6-isobutyl-2-methylpyridin-3-yl)-4-oxo-4,5-dihydro-3H-1-thia-3,5,8-triazaacenaphthylene-2-carboxamide]",<6
20,"C=CC(=O)N[C@H]1COC[C@H]1NC(=O)c1sc2nccc3c2c1NC(=O)N3c1cnc(Oc2ccccc2)cc1C (stereo in doubt) [Example 745, N-((3*S,4*R)-4-Acrylamidotetrahydrofuran-3-yl)-5-(*S)-(4-methyl-6-phenoxypyridin-3-yl)-4-oxo-4,5-dihydro-3H-1-thia-3,5,8-triazaacenaphthylene-2-carboxamide]",8.1
21,"C=CC(=O)N[C@@H]1COC[C@@H]1NC(=O)c1sc2nccc3c2c1NC(=O)N3c1cnc(Oc2ccccc2)cc1C (stereo in doubt) [Example 752, N-((*3R,*4S)-4-Acrylamidotetrahydrofuran-3-yl)-5-(*S)-(4-methyl-6-phenoxypyridin-3-yl)-4-oxo-4,5-dihydro-3H-1-thia-3,5,8-triazaacenaphthylene-2-carboxamide]",6.4

# Same assay, conditions: unphosphorylated-BTK kinase domain, Lanthascreen, 60 minutes incubation; pIC50 = negative log of IC50 in molar
row,SMILES,BTK_I_binding pIC50
1,"Cc1cc(OC(C)C)ncc1N1C(=O)Nc2c(C(=O)N[C@@H]3CCNC3)sc3nccc1c23 (single isomer, unassigned) [Example 958, (R)-5-(*S)-(6-Isopropoxy-4-methylpyridin-3-yl)-4-oxo-N-(pyrrolidin-3-yl)-4,5-dihydro-3H-1-thia-3,5,8-triazaacenaphthylene-2-carboxamide]",<6

# Same assay, conditions: unphosphorylated-BTK kinase domain; 60 minutes incubation; pIC50 = negative log of the IC50 in molar
row,SMILES,BTK_I_binding pIC50
1,"Cc1cc(Oc2ccccc2)ccc1N1C(=O)Nc2c(C(=O)N[C@@H]3CCCN(C(=O)/C=C/CNS(C)(=O)=O)C3)sc3nccc1c23 (single isomer, unassigned) [Example 532, (R,E)-5-(*S)-(2-Methyl-4-phenoxyphenyl)-N-(1-(4-(methylsulfonamido)but-2-enoyl)piperidin-3-yl)-4-oxo-4,5-dihydro-3H-1-thia-3,5,8-triazaacenaphthylene-2-carboxamide]",7.4
